Non-standard residues stand in square brackets, D forms with d. Residues, ends and D or L forms follow the SMILES beside them. Groups on a side chain read outwards from the residue. *: point of attachment. Phe(4-NH2) = Nc1ccc(C[C@H](N)C(=O)O)cc1; X1 = CCCCCCN(CC(=O)*)C(=O)[C@H](N)CCCCN; Aib = CC(C)(N)C(=O)O; Sar = CNCC(=O)O

From US20110245164A1 (INDIANA UNIVERSITY RESEARCH AND TECHNOLOGY, published 2011) come the findings set out here.

A short description of data set [1]: Dipeptide half life on IGF1 dipeptide extended (p-NH2-F)A19 amide derivatives in PBS (HPLC). Format: physicochemical. The protocol: IGF-1 peptides was measured to determine the impact of the peptide sequence or heteroduplex on the dipeptide cleavage.
Accordingly, the IGF1A chain alone was determined to be a good model for the study of pro-drug half life on IGF1 B:A (Y^B16L^B17) derivative peptides. […] For simplicity, prodrug half lives were determined using only the IGF1 A chain in the absence of the B chain. The half lives of each propeptide was determined as described in Example 5.
The IGF^B16B17 derivative peptide prodrugs were incubated in PBS, pH 7.4 at 37° C. and at predetermined time intervals an aliquot was taken and further degradation was quenched with 0.1% TFA and the aliquot was subjected to analytical HPLC analysis. Peaks a and b, representing the prodrug and active forms of the IGF^B16B17 derivative peptide were identified with LC-MS and quantified by integration of peak area an HPLC. FIGS. 9A-9C show the output of an HPLC analysis of the degradation of the IGF^B16B17 derivativepeptide prodrug: IGF1A(Ala)^6,7,11,20(Aib-Pro-pNH-F)^19. Aliquots were taken at 20 minutes (FIG. 9A), 81 minutes (FIG. 9B) and 120 minutes (FIG. 9C) after beginning the incubation of the prodrug in PBS.

Data set [2] has as its target T1, Insulin Receptor (Homo sapiens, UniProt P06213). The data set can be described thus: Insulin receptor phosphorylation assay (receptor transfected HEK293 cells). Format: cell-based. The arrangement: expressed in transfected cells; host or cells: HEK293. To be noted: Table 10; IGF-1 receptor EC50 versus insulin receptor EC50.
Data set [3] concerns the target T1, Insulin Receptor. The data set can be described thus: Insulin receptor binding assay (competition, scintillation proximity). To be noted: Table 9; IGF-1 receptor IC50 versus insulin receptor IC50.

T1 sequence (P06213 28-758 limits assumed): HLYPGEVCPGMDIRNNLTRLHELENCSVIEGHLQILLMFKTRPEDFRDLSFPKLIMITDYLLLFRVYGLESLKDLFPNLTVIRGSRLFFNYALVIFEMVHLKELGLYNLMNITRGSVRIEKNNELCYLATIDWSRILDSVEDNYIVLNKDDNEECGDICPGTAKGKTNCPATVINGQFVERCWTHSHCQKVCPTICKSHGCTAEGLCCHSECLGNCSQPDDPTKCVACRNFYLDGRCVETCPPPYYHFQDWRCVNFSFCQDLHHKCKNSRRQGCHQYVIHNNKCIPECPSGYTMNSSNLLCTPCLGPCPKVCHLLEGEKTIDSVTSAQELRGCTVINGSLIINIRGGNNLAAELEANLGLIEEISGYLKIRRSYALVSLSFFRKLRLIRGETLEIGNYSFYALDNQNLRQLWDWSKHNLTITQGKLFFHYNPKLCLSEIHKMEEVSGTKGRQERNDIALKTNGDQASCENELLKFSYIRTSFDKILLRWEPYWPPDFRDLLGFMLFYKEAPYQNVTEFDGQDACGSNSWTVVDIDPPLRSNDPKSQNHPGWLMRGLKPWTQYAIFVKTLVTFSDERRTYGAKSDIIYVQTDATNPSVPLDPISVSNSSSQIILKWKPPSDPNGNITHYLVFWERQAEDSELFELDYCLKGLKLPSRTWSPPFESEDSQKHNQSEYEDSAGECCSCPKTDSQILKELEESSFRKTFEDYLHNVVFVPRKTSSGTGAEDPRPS
T1 sequence (P06213 763-1382 partner limits assumed): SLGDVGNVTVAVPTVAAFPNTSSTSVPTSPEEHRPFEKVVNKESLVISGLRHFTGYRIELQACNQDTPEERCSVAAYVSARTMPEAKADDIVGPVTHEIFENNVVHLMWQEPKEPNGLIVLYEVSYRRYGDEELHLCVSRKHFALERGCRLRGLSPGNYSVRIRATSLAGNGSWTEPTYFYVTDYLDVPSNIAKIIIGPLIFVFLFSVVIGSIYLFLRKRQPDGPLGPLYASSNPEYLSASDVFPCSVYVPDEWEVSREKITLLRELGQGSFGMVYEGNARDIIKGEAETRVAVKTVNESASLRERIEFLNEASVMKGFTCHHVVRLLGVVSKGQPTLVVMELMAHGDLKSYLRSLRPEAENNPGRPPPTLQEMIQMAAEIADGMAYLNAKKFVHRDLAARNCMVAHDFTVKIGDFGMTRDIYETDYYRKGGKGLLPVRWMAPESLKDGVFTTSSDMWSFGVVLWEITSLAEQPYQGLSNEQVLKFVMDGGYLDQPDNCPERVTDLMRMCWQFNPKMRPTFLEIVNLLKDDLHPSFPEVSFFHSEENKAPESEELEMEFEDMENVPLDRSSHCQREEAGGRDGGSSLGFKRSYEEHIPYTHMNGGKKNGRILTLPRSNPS

With `CC[C@H](C)[C@H](NC(=O)CN)C(=O)N[C@H](C(=O)N[C@@H](CC(=O)O)C(=O)N[C@@H](CCC(=O)O)C(=O)N[C@@H](C)C(=O)N[C@@H](C)C(=O)N[C@@H](Cc1ccccc1)C(=O)N[C@@H](CCCNC(=N)N)C(=O)N[C@@H](CO)C(=O)N[C@@H](C)C(=O)N[C@@H](CC(=O)O)C(=O)N[C@@H](CC(C)C)C(=O)N[C@@H](CCCNC(=N)N)C(=O)N[C@@H](CCCNC(=N)N)C(=O)N[C@@H](CC(C)C)C(=O)N[C@@H](CCC(=O)O)C(=O)N[C@@H](CCSC)C(=O)N[C@@H](Cc1ccc(NC(=O)CN(C)C(=O)[C@@H](N)CCCCN)cc1)C(=O)N[C@@H](C)C(=O)N[C@@H](C)C(N)=O)C(C)C` [K Sar] (H-GIVDEAAFRSADLRRLEM[Phe(4-NH2)]([Sar-Lys])AA-NH2), in data set [1] (buffer), the “Half Life” value is 21.8 h and the “Half Life, PBS” value was found to be 21.8 h. With `CC[C@H](C)[C@H](NC(=O)CN)C(=O)N[C@H](C(=O)N[C@@H](CC(=O)O)C(=O)N[C@@H](CCC(=O)O)C(=O)N[C@@H](C)C(=O)N[C@@H](C)C(=O)N[C@@H](Cc1ccccc1)C(=O)N[C@@H](CCCNC(=N)N)C(=O)N[C@@H](CO)C(=O)N[C@@H](C)C(=O)N[C@@H](CC(=O)O)C(=O)N[C@@H](CC(C)C)C(=O)N[C@@H](CCCNC(=N)N)C(=O)N[C@@H](CCCNC(=N)N)C(=O)N[C@@H](CC(C)C)C(=O)N[C@@H](CCC(=O)O)C(=O)N[C@@H](CCSC)C(=O)N[C@@H](Cc1ccc(NC(=O)[C@@H]2CCCN2C(=O)C(C)(C)N)cc1)C(=O)N[C@@H](C)C(=O)N[C@@H](C)C(N)=O)C(C)C` [AiB Pro] (H-GIVDEAAFRSADLRRLEM[Phe(4-NH2)]([Pro-Aib])AA-NH2), in data set [1] (buffer), the “Half Life” value came to 2.2 h and the “Half Life, PBS” value turned out to be 2.2 h. In addition, in data set [1] (pH 7.4), the “degradation of prodrug to active form (HPLC), in words” value is “spontaneous, non-enzymatic conversion”. Consider `CCCCCCN(CC(=O)Nc1ccc(C[C@H](NC(=O)[C@H](CCSC)NC(=O)[C@H](CCC(=O)O)NC(=O)[C@H](CC(C)C)NC(=O)[C@H](CCCNC(=N)N)NC(=O)[C@H](CCCNC(=N)N)NC(=O)[C@H](CC(C)C)NC(=O)[C@H](CC(=O)O)NC(=O)[C@H](C)NC(=O)[C@H](CO)NC(=O)[C@H](CCCNC(=N)N)NC(=O)[C@H](Cc2ccccc2)NC(=O)[C@H](C)NC(=O)[C@H](C)NC(=O)[C@H](CCC(=O)O)NC(=O)[C@H](CC(=O)O)NC(=O)[C@@H](NC(=O)[C@@H](NC(=O)CN)[C@@H](C)CC)C(C)C)C(=O)N[C@@H](C)C(=O)N[C@@H](C)C(N)=O)cc1)C(=O)[C@H](N)CCCCN` [dK N-hexyl Gly] (H-GIVDEAAFRSADLRRLEM[Phe(4-NH2)](X1)AA-NH2; N-terminus assumed), for which, in data set [1] (buffer, pH 7.4), the half-life (in general, how long it takes for the measured level to halve) was 10.6 h. As for `CC[C@H](C)[C@H](NC(=O)CN)C(=O)N[C@H](C(=O)N[C@@H](CC(=O)O)C(=O)N[C@@H](CCC(=O)O)C(=O)N[C@H]1CSSC[C@@H]2NC(=O)[C@H](CO)NC(=O)[C@H](CCCNC(=N)N)NC(=O)[C@H](Cc3ccccc3)NC(=O)[C@H](CSSC[C@H](NC(=O)[C@H](CC(C)C)NC(=O)[C@@H](NC(=O)[C@H](CCC(=O)O)NC(=O)[C@@H]3CCCN3C(=O)CN)[C@@H](C)O)C(=O)NCC(=O)N[C@@H](C)C(=O)N[C@@H](CC(=O)O)C(=O)N[C@@H](CC(C)C)C(=O)N[C@@H](C(C)C)C(=O)N[C@@H](CC(=O)O)C(=O)N[C@@H](C)C(=O)N[C@@H](CC(C)C)C(=O)N[C@@H](Cc3ccc(O)cc3)C(=O)N[C@@H](CC(C)C)C(=O)N[C@@H](C(C)C)C(=O)N[C@H](C(=O)NCC(=O)N[C@@H](CC(=O)O)C(=O)N[C@@H](CCCNC(=N)N)C(=O)NCC(=O)N[C@@H](Cc3ccccc3)C(=O)N[C@@H](Cc3ccc(O)cc3)C(N)=O)CSSC[C@@H](C(=O)N[C@@H](C)C(=O)O)NC(=O)[C@H](Cc3ccc(O)cc3)NC(=O)[C@H](CCSC)NC(=O)[C@H](CCC(=O)O)NC(=O)[C@H](CC(C)C)NC(=O)[C@H](CCCNC(=N)N)NC(=O)[C@H](CCCNC(=N)N)NC(=O)[C@H](CC(C)C)NC(=O)[C@H](CC(=O)O)NC2=O)NC1=O)C(C)C` [IGF-1 A:B(D10Y16L17) DPI A-COOH], the “Selective Ratio” value in data set [2] is 9.75. For `CC[C@H](C)[C@H](NC(=O)CN)C(=O)N[C@H](C(=O)N[C@@H](CC(=O)O)C(=O)N[C@@H](CCC(=O)O)C(=O)N[C@H]1CSSC[C@@H]2NC(=O)[C@H](CO)NC(=O)[C@H](C)NC(=O)[C@H](Cc3c[nH]cn3)NC(=O)[C@H](CSSC[C@H](NC(=O)[C@H](CC(C)C)NC(=O)[C@H](Cc3c[nH]cn3)NC(=O)[C@H](CCC(=O)O)NC(=O)[C@@H]3CCCN3C(=O)CN)C(=O)NCC(=O)N[C@@H](C)C(=O)N[C@@H](CC(=O)O)C(=O)N[C@@H](CC(C)C)C(=O)N[C@@H](C(C)C)C(=O)N[C@@H](CC(=O)O)C(=O)N[C@@H](C)C(=O)N[C@@H](CC(C)C)C(=O)N[C@@H](Cc3ccc(O)cc3)C(=O)N[C@@H](CC(C)C)C(=O)N[C@@H](C(C)C)C(=O)N[C@H](C(=O)NCC(=O)N[C@@H](CC(=O)O)C(=O)N[C@@H](C)C(=O)NCC(=O)N[C@@H](Cc3ccccc3)C(=O)N[C@@H](Cc3ccc(O)cc3)C(N)=O)CSSC[C@@H](C(=O)N[C@@H](CC(N)=O)C(=O)O)NC(=O)[C@H](Cc3ccc(O)cc3)NC(=O)[C@H](CCSC)NC(=O)[C@H](CCC(=O)O)NC(=O)[C@H](CC(C)C)NC(=O)[C@H](CCCNC(=N)N)NC(=O)[C@H](CCCNC(=N)N)NC(=O)[C@H](CC(C)C)NC(=O)[C@H](CC(=O)O)NC2=O)NC1=O)C(C)C`, the “Selective Ratio” value in data set [2] amounted to 32.54. In the case of `CC[C@H](C)[C@H](NC(=O)CN)C(=O)N[C@H](C(=O)N[C@@H](CC(=O)O)C(=O)N[C@@H](CCC(=O)O)C(=O)N[C@H]1CSSC[C@@H]2NC(=O)[C@H](CO)NC(=O)[C@H](CCCNC(=N)N)NC(=O)[C@H](Cc3ccccc3)NC(=O)[C@H](CSSC[C@H](NC(=O)[C@H](CC(C)C)NC(=O)[C@@H](NC(=O)[C@H](CCC(=O)O)NC(=O)[C@@H]3CCCN3C(=O)CN)[C@@H](C)O)C(=O)NCC(=O)N[C@@H](C)C(=O)N[C@@H](CCC(=O)O)C(=O)N[C@@H](CC(C)C)C(=O)N[C@@H](C(C)C)C(=O)N[C@@H](CC(=O)O)C(=O)N[C@@H](C)C(=O)N[C@@H](CC(C)C)C(=O)N[C@@H](Cc3ccc(O)cc3)C(=O)N[C@@H](CC(C)C)C(=O)N[C@@H](C(C)C)C(=O)N[C@H](C(=O)NCC(=O)N[C@@H](CC(=O)O)C(=O)N[C@@H](CCCNC(=N)N)C(=O)NCC(=O)N[C@@H](Cc3ccccc3)C(=O)N[C@@H](Cc3ccc(O)cc3)C(N)=O)CSSC[C@@H](C(=O)N[C@@H](C)C(N)=O)NC(=O)[C@H](Cc3ccc(O)cc3)NC(=O)[C@H](CCSC)NC(=O)[C@H](CCC(=O)O)NC(=O)[C@H](CC(C)C)NC(=O)[C@H](CCCNC(=N)N)NC(=O)[C@H](CCCNC(=N)N)NC(=O)[C@H](CC(C)C)NC(=O)[C@H](CC(=O)O)NC2=O)NC1=O)C(C)C` [IGF-1 A:B (E10Y16L17) DPI], the Ratio in data set [3] was 60.2. As to `CC[C@H](C)[C@H](NC(=O)CN)C(=O)N[C@H](C(=O)N[C@@H](CC(=O)O)C(=O)N[C@@H](CCC(=O)O)C(=O)N[C@@H](C)C(=O)N[C@@H](C)C(=O)N[C@@H](Cc1ccccc1)C(=O)N[C@@H](CCCNC(=N)N)C(=O)N[C@@H](CO)C(=O)N[C@@H](C)C(=O)N[C@@H](CC(=O)O)C(=O)N[C@@H](CC(C)C)C(=O)N[C@@H](CCCNC(=N)N)C(=O)N[C@@H](CCCNC(=N)N)C(=O)N[C@@H](CC(C)C)C(=O)N[C@@H](CCC(=O)O)C(=O)N[C@@H](CCSC)C(=O)N[C@@H](Cc1ccc(NC(=O)[C@H]2CCCN2C(=O)C(C)(C)N)cc1)C(=O)N[C@@H](C)C(=O)N[C@@H](C)C(N)=O)C(C)C` [AiB dPro] (H-GIVDEAAFRSADLRRLEM[Phe(4-NH2)]([dP-Aib])AA-NH2), in data set [1] (buffer), the “Half Life” value was found to be 1.9 h and the “Half Life, PBS” value was determined as 2.1 h. As for `CC[C@H](C)[C@H](NC(=O)CN)C(=O)N[C@H](C(=O)N[C@@H](CC(=O)O)C(=O)N[C@@H](CCC(=O)O)C(=O)N[C@H]1CSSC[C@@H]2NC(=O)[C@H](CO)NC(=O)[C@H](C)NC(=O)[C@H](Cc3c[nH]cn3)NC(=O)[C@H](CSSC[C@H](NC(=O)[C@H](CC(C)C)NC(=O)[C@H](Cc3c[nH]cn3)NC(=O)[C@H](CCC(=O)O)NC(=O)[C@@H]3CCCN3C(=O)CN)C(=O)NCC(=O)N[C@@H](C)C(=O)N[C@@H](CC(=O)O)C(=O)N[C@@H](CC(C)C)C(=O)N[C@@H](C(C)C)C(=O)N[C@@H](CC(=O)O)C(=O)N[C@@H](C)C(=O)N[C@@H](CC(C)C)C(=O)N[C@@H](Cc3ccc(O)cc3)C(=O)N[C@@H](CC(C)C)C(=O)N[C@@H](C(C)C)C(=O)N[C@H](C(=O)NCC(=O)N[C@@H](CC(=O)O)C(=O)N[C@@H](CCCNC(=N)N)C(=O)NCC(=O)N[C@@H](Cc3ccccc3)C(=O)N[C@@H](Cc3ccc(O)cc3)C(N)=O)CSSC[C@@H](C(=O)N[C@@H](CC(N)=O)C(=O)O)NC(=O)[C@H](Cc3ccc(O)cc3)NC(=O)[C@H](CCSC)NC(=O)[C@H](CCC(=O)O)NC(=O)[C@H](CC(C)C)NC(=O)[C@H](CCCNC(=N)N)NC(=O)[C@H](CCCNC(=N)N)NC(=O)[C@H](CC(C)C)NC(=O)[C@H](CC(=O)O)NC2=O)NC1=O)C(C)C`, the “Selective Ratio” value in data set [2] is 2.81.
